# Legend:
# [1] = test system: production of IL-1β, IL-6, and TNF-α by PBMC activated with LPS; test: Lipopolysaccharide-activated PBMC cytokine production assay; type: cell-based; conditions: LPS 100 ng/mL, 18 hours, IL-1β, IL-6, TNF-α, read-out: IC50 in the whole blood PMBC assay
# Procedure: Lipopolysaccharide-Activated PBMC Cytokine Production Assay
# Test compounds were evaluated in vitro for the ability to inhibit the production of IL-1β, IL-6, and TNF-α by PBMC activated with bacterial lipopolysaccharide (LPS). Fresh leukocytes were obtained from a local blood bank, and peripheral blood mononuclear cells (PBMCs) were isolated by density gradient centrifugation on Ficol-Paque Plus (Pharmacia).
# Preparation of Test Compound Stock Solutions
# All reagents were prepared in RPMI 1640+10% v/v human AB serum+1×Pens/Strep/Glu (assay medium). Test compounds were dissolved in 100% DMSO and serially diluted in 96-well polypropylene round bottom micro titer plates (drug plate). Serial dilutions were then diluted 1:250 into assay medium to a 4× working concentration. Compound serial dilutions were half-log, 10 point titrations with a final starting concentration of 1 μM.
# Treatment of Cells with Test Compounds and Activation with Lipopolysaccharide
# LPS was prepared to a 4× concentration in assay medium. 100 μl of PBMC (1×10^6 cells/ml) were plated in a 96-well polystyrene flat bottom micro titer tissue culture plate and incubated with 50 μl of 4× compound serial dilution for 1 hour at 37° C., 5% CO2 in a tissue culture incubator. 50 μl 4×LPS or control was added and the plates were incubated at 37° C., 5% CO2 in a tissue culture incubator for 18 hours. The final DMSO concentration was 0.1%. The total volume was 200 μL. The final LPS concentration was 100 ng/mL. After 18 hours culture supernatants were removed and IL-1β, IL-6, and TNF-α presence in the supernatants was quantified using MSD ECL based technology.
# Cytokine Measurements 20 μL of culture supernatant were added to MSD plates, and incubated for one hour at room temperature. 20 μL of detection antibody diluted in antibody diluent (1 μg/mL), and 110 μL of 2× Read Buffer P was added, and incubated for one hour at RT. Electrochemiluminescence was measured using the SECTOR HTS Imager (MSD, Gaithersburg, Md.). Data Analysis
# Compound IC50 values were calculated as follows: The proportion of cytokine production in the presence of compound compared to the cytokine production in the presence of the DMSO vehicle alone (Hi control) was calculated using the formula: Percent Control (POC)=(compound−average Lo)/(average Hi−average Lo)*100.
# [2] = test system: TNF-α secretion by LPS-treated THP1 cells; test: Lipopolysaccharide-activated THP1 cell TNF production assay; type: cell-based; conditions: Homo sapiens, THP-1; LPS, 3 hours, THP1 cells; read-out: IC50 in the THP-1 cellular TNF production assay
# Procedure: Lipopolysaccharide-Activated THP1 Cell TNF Production Assay
# THP1 cells were resuspended in fresh THP1 media (RPMI 1640, 10% heat-inactivated FBS, 1×PGS, 1×NEAA, plus 30 μM βME) at a concentration of 1.5×10^6 cells per mL. One hundred microliters of cells per well were plated in a polystyrene 96-well tissue culture plate. 1.5 micrograms per mL of bacterial LPS was prepared in THP1 media and transferred to the first 11 columns of a 96-well polypropylene plate. Column 12 contained only THP1 media for the LO control. Compounds were dissolved in 100% DMSO and serially diluted 3 fold in a polypropylene 96-well microtiter plate (drug plate). Columns 6 and 12 were reserved as controls (HI controls and LO controls respectively) and contained only DMSO. 10 μL of LPS followed by one microliter of inhibitor compound from the drug plate was transferred to the cell plate. The treated cells were induced to synthesize and secrete TNF-α in a 37° C. humidified incubator with 5% CO2 for 3 hours. Fifty microliters of conditioned media was transferred to a 96-well MULTI-ARRAY™ 96-well small spot plate—custom coated with MAB610 containing 100 μL of 2× Read Buffer P supplemented with 0.34 nM AF210NA polyclonal Ab labeled with ruthenium (MSD-Sulfo-TAG™-NHS ester). After an overnight incubation at room temperature with shaking, the reaction was read on the Sector Imager™ 6000. […] The amount of secreted TNF-α in the presence of AMG compounds compared with that in the presence of DMSO vehicle alone (HI control) was calculated using the formula: % control (POC)=(cpd−average LO)/(average HI−averageLO)*100. Data (consisting of POC and inhibitor concentration in μM) was fitted to a 4-parameter equation (y=A+((B−A)/(1+((x/C)^D))), where A is the minimum y (POC) value, B is the maximum y (POC), C is the x (cpd concentration) at the point of inflection and D is the slope factor) using a Levenburg-Marquardt non-linear regression algorithm.
# recombinant human p38α = recombinant human p38α (Homo sapiens, UniProt Q16539); test: Purified and activated recombinant human p38α HTRF kinase assay; type: biochemical; conditions: 1 nM p38α, 50 μM ATP, GST-ATF2 substrate, read-out: p38a IC50
# Sequence of recombinant human p38α (Q16539 whole entry): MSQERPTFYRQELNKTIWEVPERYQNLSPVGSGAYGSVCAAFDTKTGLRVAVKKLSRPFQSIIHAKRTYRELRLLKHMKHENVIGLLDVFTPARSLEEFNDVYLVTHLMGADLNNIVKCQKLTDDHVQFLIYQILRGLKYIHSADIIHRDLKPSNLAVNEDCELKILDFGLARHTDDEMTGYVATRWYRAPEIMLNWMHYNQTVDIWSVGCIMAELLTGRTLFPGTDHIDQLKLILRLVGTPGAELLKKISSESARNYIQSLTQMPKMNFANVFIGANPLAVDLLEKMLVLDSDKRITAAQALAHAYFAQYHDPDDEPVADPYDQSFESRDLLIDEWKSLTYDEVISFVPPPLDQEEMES
# Procedure: Purified and Activated Recombinant Human p38α Assay
# • Kinase Reaction Buffer: Kinase reaction buffer for p38α HTRF assays consists of 50 mM Tris-pH 7.5, 5 mM MgCl2, 0.1 mg/mL BSA, 100 μM Na3VO4 and 0.5 mM DTT. • HTRF Detection Buffer: HTRF detection buffer contains 100 mM HEPES-pH 7.5, 100 mM NaCl, 0.1% BSA, 0.05% Tween-20, and 10 mM EDTA. • Serial Dilution of Compounds: Compounds were dissolved in 100% DMSO and serially diluted (3 fold, 10 point) in a polypropylene 96-well microtiter plate (drug plate). The final starting concentration of compounds in the p38α enzymatic assays was 1 μM. Columns 6 and 12 (HI controls and LO controls respectively) in the drug plate were reserved as controls and contained only DMSO. • Kinase Reaction The p38α kinase reactions were carried out in a polypropylene 96-well black round bottom assay plate in total volume of 30 μL kinase reaction buffer. Appropriate concentration of purified and activated enzyme (recombinant human) was mixed with indicated concentration of ATP and 100 nM GST-ATF2-Avitag, in the presence or absence (HI control) of Compound. See table below for actual concentrations. In the absence of substrate, the background was measured as LO control. The reaction was allowed to incubate for 1 hour at RT. • Assay Reagent Concentrations: The final reagent concentrations were 1 nM p38α and 50 μM ATP. […] After 60 minutes incubation at room temperature, the assay plate was read in a Discovery Plate Reader. The wells were excited with coherent 320 nm light and the ratio of delayed ([…] post excitation) emissions at […] (native europium fluorescence) and 665 nm (europium fluorescence transferred to allophycocyanin—an index of substrate phosphorylation) was determined (Park et al, 1999). • Data Analysis: The proportion of substrate phosphorylated in the kinase reaction in the presence of compound compared with that phosphorylated in the presence of DMSO vehicle alone (HI control) was calculated using the formula: % control (POC)=(compound−average LO)/(average HI−average LO)*100. Data (consisting of POC and inhibitor concentration in μM) was fitted to a 4-parameter equation (y=A+((B−A)/(1+((x/C)^D))), where A is the minimum y (POC) value, B is the maximum y (POC), C is the x (compound concentration) at the point of inflection and D is the slope factor, using a Levenburg-Marquardt non-linear regression algorithm.
# The inhibition constant (Ki) of the inhibitor was estimated from the IC50 (compound concentration at the point of inflection C) using the Cheng-Prussof equation: Ki=IC50/(1+S/Km), where S is the ATP substrate concentration, and Km is the Michaelis constant for ATP as determined experimentally. All results were expressed as the mean±the standard error of the mean. Data acquisition and non-linear regression algorithms were performed using Activity Base v5.2 and XL-fit software v4.1 respectively. All data was archived using Activity Base v5.2 software.
# [3] = test system: secreted IL-8 by whole blood activated with TNF-α; test: Inhibition of TNF-α induced IL-8 in 50% human whole blood; type: cell-based; conditions: Homo sapiens, TNF-α (1 nM) induced IL-8, 50% human whole blood; read-out: WB TNF/IL8 IC50
# Procedure: Inhibition of TNF-α Induced IL-8 in 50% Human Whole Blood
# Test compounds were evaluated in vitro for the ability to inhibit the production of secreted IL-8 by whole blood activated with TNF-α. Fresh human whole blood was obtained from healthy, non-medicated volunteers in sodium heparin tubes.
# Compound Dilution—Assay Procedure
# 100 ul heparinized whole blood is plated into wells of 96 well flat bottom plates. 50 ul of either 4× compound or DMSO control (Final DMSO concentration is 0.1%) are added to the appropriate wells. Plates are incubated for 1 hour at 37 degrees Celsius. 50 ul of 4×TNF-α ([…], for a final concentration of 1 nM) or control (media alone) is added to the appropriate wells (Total volume=200 ul). Plates are incubated overnight (16-18 hours). 100 ul of supernatant is collected and stored in 96-well round bottom polypropylene plates at −80 degrees Celsius or assayed immediately for IL-8.
# Cytokines are measured on antibody (Ab) sandwich ECL based 96-well detection plates. 20 ul of supernatant are added to plate and plate is sealed and shaken at RT for 1 hour. 130 ul of detection Ab cocktail is added and plates are sealed and shaken for 1 hour in the dark at RT. Plates are read on MSD Sector HTS instrument. Data are analyzed and IC50 values generated using Activity Base and XI-fit programs.
SMILES,IC50 [2] [µM],IC50 (recombinant human p38α) [µM],IC50 [3] [µM],IC50 [1] [µM]
"Cc1c(F)cc(C(=O)NC2CC2)cc1-c1cc2cnn(-c3c(F)cccc3F)c2n(C)c1=O [Example 2, N-cyclopropyl-3-(1-(2,6-difluorophenyl)-7-methyl-6-oxo-6,7-dihydro-1H-pyrazolo[3,4-b]pyridin-5-yl)-5-fluoro-4-methylbenzamide]",≤ 0.175,0.0018,,≤ 0.125
"Cc1c(F)cc(C(=O)Nc2ccon2)cc1-c1cc2cnn(-c3c(F)cccc3F)c2n(C)c1=O [Example 3, 3-(1-(2,6-difluorophenyl)-7-methyl-6-oxo-6,7-dihydro-1H-pyrazolo[3,4-b]pyridin-5-yl)-5-fluoro-N-3-isoxazolyl-4-methylbenzamide]",≤ 0.175,0.0024,,≤ 0.125
"Cc1c(F)cc(C(=O)NC2CC2)cc1-c1cc2cnn(-c3ccccc3Cl)c2n(C)c1=O [Example 8, 3-(1-(2-chlorophenyl)-7-methyl-6-oxo-6,7-dihydro-1H-pyrazolo[3,4-b]pyridin-5-yl)-N-cyclopropyl-5-fluoro-4-methylbenzamide]",≤ 0.175,0.0023,,≤ 0.125
"Cc1ccc(C(=O)NC2CC2)cc1-c1cc2cnn(-c3ccccc3Cl)c2n(C)c1=O [Example 12, 3-(1-(2-chlorophenyl)-7-methyl-6-oxo-6,7-dihydro-1H-pyrazolo[3,4-b]pyridin-5-yl)-N-cyclopropyl-4-methylbenzamide]",≤ 0.175,0.0018,,≤ 0.125
"Cc1ccc(C(=O)Nc2ccon2)cc1-c1cc2cnn(-c3ccc(F)cc3F)c2n(C)c1=O [Example 27, 3-(1-(2,4-difluorophenyl)-7-methyl-6-oxo-6,7-dihydro-1H-pyrazolo[3,4-b]pyridin-5-yl)-N-3-isoxazolyl-4-methylbenzamide]",≤ 0.175,0.0024,,≤ 0.125

# Further lines, with some results ahead:
IC50 [2] [µM],IC50 (recombinant human p38α) [µM],IC50 [3] [µM],SMILES,IC50 [1] [µM]
≤ 0.175,0.001,,"Cc1c(F)cc(C(N)=O)cc1-c1cc2cnn(-c3c(F)cccc3F)c2n(C)c1=O [Example 31, 3-(1-(2,6-difluorophenyl)-7-methyl-6-oxo-6,7-dihydro-1H-pyrazolo[3,4-b]pyridin-5-yl)-5-fluoro-4-methylbenzamide]",≤ 0.125
,0.704,≥ 2.5,"Cc1ccc(C(=O)O)cc1-c1cc2cnn(-c3c(F)cccc3F)c2n(C)c1=O [Example 38, 3-(1-(2,6-difluorophenyl)-7-methyl-6-oxo-6,7-dihydro-1H-pyrazolo[3,4-b]pyridin-5-yl)-4-methylbenzoic acid]",
≤ 0.175,1,≥ 2.5,"Cc1ccc(C(=O)O)cc1-c1cc2cnn(-c3ccc(F)cc3F)c2n(C)c1=O [Example 41, 3-(1-(2,4-difluorophenyl)-7-methyl-6-oxo-6,7-dihydro-1H-pyrazolo[3,4-b]pyridin-5-yl)-4-methylbenzoic acid]",
≤ 0.175,0.0078,≥ 2.5,"COc1ccc(C(F)(F)F)cc1NC(=O)c1ccc(C)c(-c2cc3cnn(-c4c(F)cccc4F)c3n(C)c2=O)c1 [Example 45, 3-(1-(2,6-difluorophenyl)-7-methyl-6-oxo-6,7-dihydro-1H-pyrazolo[3,4-b]pyridin-5-yl)-4-methyl-N-(2-(methyloxy)-5-(trifluoromethyl)phenyl)benzamide]",

# Reference: patent US7846944B2, “Pyrazolo-pyridinone compounds and methods of use thereof” (Amgen Inc., priority 2007, dated 2010)
